Measurements as given in patent US20200158718A1, “A METHOD FOR PREDICTING TIME-TO-VIRAL CLEARANCE IN PATIENTS WITH CHRONIC HEPATITIS C VIRUS (HCV) INFECTION UNDER DIRECT ACTING ANTIVIRAL (DAA) THERAPY” (priority 2017, published 2020).
Where “and” joins values, the source holds several entries; their conditions need not be identical. Equal entries are not always repeated.

Tests used:
Type in all cases: in vivo, human
hepatitis C virus (HCV) [1] = assay: Observational trial (training set): HCV-RNA / virological response of chronic HCV patients under DAA therapy; details: for HCV-RNA EOT / HCV-RNA wk 4 / HCV-RNA SVR12: one line per patient (Table 3); for HCV-RNA EOT: end of treatment; for HCV-RNA wk 4: week 4 of therapy; for HCV-RNA SVR12: week 12 after end of treatment; for Response to DAA Therapy: one line per patient (Table 1, patients 1-23), SVR12 = undetectable HCV-RNA at week 12 after end of treatment, relapse = undetectable at EOT but detectable during follow-up, patients 5, 9 treated 24 weeks, patients 18, 23 treated 8 weeks
Method: The expression “time-to-viral clearance” indicates the period until no HCV RNA detection with currently available detection methods, e.g. as measured by PCR, particularly by quantitative real-time PCR in peripheral blood samples, e.g. in samples of at least 5 ml EDTA blood or whole blood is possible. Using a standard PCR-based test, fewer than 12 copies per milliliter blood is considered to be clinically clear of HCV (Table 3).
(§1) Peripheral blood samples were provided by patients with chronic HCV infection, who were participating in an observational trial (clinicaltrials.gov: NCT02904603) authorized by the local ethics committee. For a training trial, 23 patients (genotype 1a (n=10), 1b (n=9) and 3 (n=4)) were treated with daclatasvir plus sofosbuvir (DCV/SOF; n=15), ledipasvir plus sofosbuvir (LDV/SOF; n=4) or with ritonavir-boosted paritaprevir, ombitasvir, and dasabuvir (n=4).
(§2) A sustained virological response to DAA therapy is generally achieved in 85-99% of chronic HCV patients, depending upon viral genotype, patient-related factors and the choice of treatment regime. In the present study of 23 patients with chronic HCV infection, 22 had achieved a sustained virological response at 12 weeks post-treatment (SVR12). Clearance of virus was associated with improved liver function and reduction in systemic markers of liver inflammation. Although most patients achieved sustained virological responses by 12 weeks, there was considerable variation in time to HCV RNA negativity and normalization of biochemical parameters. Baseline mean HCV RNA titer was 6.12±0.12 log 10 IU/ml, falling to 1.2±0.14 log 10 IU/ml by 4 weeks, at which time 12/23 patients were HCV RNA <12 IU/ml. HCV establishes persistent infections during which virus-specific CD4+ and CD8+ T cells become impaired through progressive functional exhaustion or clonal deletion, and intrahepatic NK cell responses are subdued. […] In particular, this study aimed to identify a minimal set of immunological markers that accurately classified patients with chronic HCV infections as “fast responders” (i.e. HCV RNA <12 IU/ml by 4 weeks) or “slow responders” (i.e. HCV RNA >12 IU/ml at 4 weeks, irrespective of later outcome). These biomarkers were to be independent of viral genotype, baseline fibrosis score, previous HCV treatment, and other patient-related factors. Therefore, the influence of the ALT levels, of the HCV genotype, of a previous treatment for chronic HCV, and the pre-treatment fibrosis score were also analyzed.

hepatitis C virus (HCV) [2] = assay: Prospective set: HCV-RNA at week 4 of DAA therapy in a further 10 chronic HCV patients; details: one line per patient (Table 5, prospective set)
Description: To verify that the model accurately predicted fast and slow responses, data were collected from a further 10 chronic HCV patients prior to DAA treatment (Table 5). In this “prospective set”, 8 patients were slow responders and 2 were fast responders: all slow responders were correctly classified as such (Table 2D). The model also correctly identified 1 of 2 fast responders. […] For the purpose of prospectively and safely shortening DAA therapy, a test with high specificity is more important than one with high sensitivity.
To verify that the herein disclosed model accurately predicts fast and slow responses, data were collected from a further 10 chronic HCV patients prior to DAA treatment (cf. the Table 5 below).

[3] = tested on: ALT, alanine aminotransferase; assay: Observational trial (training set): ALT level of chronic HCV patients under DAA therapy; details: one line per patient (Table 3); for ALT level EOT: end of treatment; for ALT level wk 4: week 4 of therapy; for ALT level SVR12: week 12 after end of treatment
Method: as §1, §2

Substance | HCV-RNA EOT (hepatitis C virus (HCV) [1]) | HCV-RNA wk 4 (hepatitis C virus (HCV) [1]) | HCV-RNA SVR12 (hepatitis C virus (HCV) [1]) | Response to DAA Therapy wk 4 (hepatitis C virus (HCV) [2]) | ALT level EOT [3] | ALT level wk 4 [3] | ALT level SVR12 [3] | Response to DAA Therapy (hepatitis C virus (HCV) [1])
daclatasvir plus sofosbuvir [SOF + DCV] | neg. (7×) and <12 IU/ml (8×) | <12 IU/ml (4×) and neg | neg. | 30 IU/ml | 44 U/L and 46 U/L and 24 U/L and 45 U/L and 61 U/L and 42 U/L and 30 U/L and 70 U/L and 17 U/L and 23 U/L (2×) and 47 U/L and 22 U/L and 19 U/L and 31 U/L | 38 U/L and 42 U/L and 27 U/L and 51 U/L and 47 U/L and 34 U/L (2×) and 25 U/L and 62 U/L and 22 U/L and 31 U/L and 28 U/L and 29 U/L and 24 U/L and 23 U/L | 31 U/L and 35 U/L and 21 U/L (3×) and 41 U/L and 37 U/L and 43 U/L and 24 U/L and 62 U/L and 17 U/L and 107 U/L and 25 U/L and 23 U/L and 42 U/L | –
ledipasvir plus sofosbuvir [SOF + LDV] | neg. | <12 IU/ml | neg. | 61 IU/ml and <12 IU/ml (2×) and 51 IU/ml and 12 IU/ml (2×) and 14 IU/ml | 31 U/L and 64 U/L and 23 U/L and 24 U/L | 31 U/L and 74 U/L and 22 U/L and 24 U/L | 27 U/L and 32 U/L and 21 U/L and 10 U/L | SVR12
ritonavir-boosted paritaprevir, ombitasvir, and dasabuvir [3D] | neg. | neg | neg. | – | 21 U/L and 15 U/L and 23 U/L | 24 U/L and 17 U/L and 19 U/L | 24 U/L and 21 U/L | SVR12
